Earlier results on 2 molecules are cited in patent US20080200434A1, “Chemical Target-Binding Compositions” (priority 2006, published 2008).

The conditions of series [1]: aqueous association with glucose; Lorand and Edwards 1959.
The conditions of series [2]: chronic exposure (Hubbard, S. A. 1998).

By Kd is commonly meant the concentration at which binding is half-saturated. `OB(O)c1ccccc1` [phenylboronic acid]: in series [1], the Kd is 9.1 mM.
Turning to `OB(O)O` [boric acid], the “no observed adverse effect level” value in series [2] is listed as 9-43 mg boron/kg/day.
